Key:
[1] = test system: zebrafish embryo; assay: Biosafety in zebrafish embryo (OECD C15, semi-static, 9 days); type: in vivo, Danio rerio
Procedure: The fertilized eggs were obtained by natural mating of the zebrafish (Danio rerio, AB strain). A total of 8-10 pairs were used for each cross and a total of 200-250 eggs were generated on average per pair.
To assure exposure in the earliest stages of development, the eggs were quickly transferred (a minimum of 50 per condition) to another Petri dish with solutions of the compounds to be tested. […] Each experiment was performed in triplicate.
The studies were conducted in a total of 9 days post-fertilization, in which the treatment was renewed every day, thus conducting a semi-static assay.
The results at the end of the experiment allowed collecting the percentage of healthy larvae which reach the end of the experiment, defined as the number of live larvae and without symptoms of external physiopathological anomalies (morphological and/or behavioral), this being a parameter determining the biosafety of a substance under study and is complementary to the survival rates and to the LD50.
The anomalies recorded in the study are described below: • Intracranial thrombosis: a clot inside the blood vessel, in this case of any cerebral vessel. • Cardiac thrombosis: occurs in a cardiac vessel. • Cardiac edema (or hydrops): accumulation of fluid in the intercellular tissue space and also in the cavities of the organism. In the case of the heart, it causes the accumulation of fluid in the pericardial sac. • Malformation: a noticeable difference in the shape of the body or part of the body, or organ of the body (internal or external) compared with the average shape of the part in question.
The cardiac rhythm of the zebrafish embryos-larva was determined by means of visual analysis in stereomicroscopy, determining the heartbeat with the aid of a manual counter for a period of one minute.

[2] = PAMPA, 18 h, 100 μM, pH 7.4
[3] = test system: ApoB100 mice; assay: Hypocholesterolemic effect, oral three months, endogenous hyperlipidemia model; type: in vivo; details: 50 mg/kg oral, 3 months
Procedure: All the animals included for the experimental process were 6-month old female mice. The experiments were conducted strictly following the Guidance on the Operation of Animals (Scientific Procedures, Act. 1986). The animals had their respective quarantine period and were treated with maximum precaution to minimize possible contaminations for inoculations and handling.
After a conditioning to the diet, 50 mg/kg of NST0021 or NST0037 were orally administered to the mice for 3 months, three times a week, using in both cases 0.25% carboxy methylcellulose in physiological saline as a vehicle. The control group received this same vehicle. Before starting the treatments and at one, two and three months of starting them, retro-orbital blood extractions after fasting for 16 hours were carried out. The plasma was obtained from said blood, in which the total cholesterol (TC), free cholesterol (FC), cholesterol (EC), HDL-c, LDL-c, VLDL-c levels were evaluated by enzymatic and spectrophotometric techniques.

[4] = test system: human neuroblastoma SK-N-MC cells; assay: Protection against neuronal death induced by inhibition of PP1 (okadaic acid), WST-1; type: cell-based; details: 40 μM NST0037; 20 nM okadaic acid
Procedure: (§1) The assay was performed on human neuroblastoma SK-N-MC cells in culture from the American Type Culture Collection (ATCC), in all cases strict rules of sterility were followed and the manipulation was performed in class II biological safety cabinets following European standard EN 12469. The cells were maintained in the following culture medium: Minimum Essential Medium Eagle (MEM) supplemented with 1 mM sodium pyruvate, 2 mM L-glutamine, 0.1 mM non-essential amino acids, 0.05 mg/ml gentamicin and 10% fetal bovine serum.
The inhibition caused by compound NST0037 of cell death caused by the treatment with okadaic acid (OA) which inhibits the activity of protein phosphatase 1 (PP1) was analyzed. OA is one of the most used drugs for studying the phosphorylation mechanism of the tau protein, involved in the pathogenesis and progression of AD. The inhibition of PP1 causes cytoskeleton alterations and mitochondrial damage. […]
The cells were incubated (at 37° C. and 5% CO2) with these treatments for 22 hours, after which time the WST-1 reagent (Roche) was added. […] The formazan which is formed can be detected colorimetrically since it has an absorbance of 440 nm. The reading was taken in a plate reader at 440 nm 2 hours after adding the reagent.

[5] = test system: human neuroblastoma SK-N-MC cells; assay: Protection against neuronal death induced by apoptosis (camptothecin), WST-1; type: cell-based; details: 20 nM camptothecin
Procedure: as §1
The inhibition caused by compound NST0037 of cell death caused by treatment with camptothecin generating cell cycle arrest was analyzed. Camptothecin is an inhibitor of Topoisomerase I, it therefore prevents DNA duplication and triggers cell cycle arrest and death due to apoptosis. These cells, not exceeding 15 passages, were seeded on 96-well plates treated for adherent cells with a cell concentration of 5×10^4 cells/well; 3 wells of the plate were seeded for each condition of the assay.
After 24 hours of cell incubation at 37° C. and 5% CO2, the cell treatments were performed with 100 μl of total volume for the following conditions: • Control: culture medium (medium) • Camptothecin (CPT): medium plus camptothecin 20 nM, causing death of 50% of the cells. • Camptothecin plus NST0037: medium plus camptothecin (20 nM) plus NST0037 at 1, 4, 10, 20, 40 or 100 μM.
The cells were incubated (at 37° C. and 5% CO2) with these treatments for 22 hours, after which time the WST-1 reagent (Roche) was added. The Test WST-1 is based on the measurement of metabolic activity. Cell damage causes the loss of the ability of cells to obtain the energy necessary to maintain their metabolic functions and cell growth, therefore the metabolically active (live) cells reduce tetrazolium salt to formazan by means of the succinate-tetrazolium reductase system (of the mitochondrial respiratory chain). The formazan which is formed can be detected colorimetrically since it has an absorbance of 440 nm. The reading was taken in a plate reader at 440 nm 2 hours after adding the reagent.

## CCC(CC)C(=O)O[C@H]1C[C@@H](C)C=C2C=C[C@H](C)[C@H](CC[C@@H]3C[C@@H](O)CC(=O)O3)[C@H]21 [NST0037, (1S,2S,6R,8S,8aR)-1,2,6,7,8,8a-hexahydro-3,7-dimethyl-8-[2-[(2R,4R)-tetrahydro-4-hydroxy-6-oxo-2H-pyran-2-yl]ethyl]-1-naphthalenyl-2-ethyl-butyrate]
[1]; 0.2 mg/L
  percentage of larvae with malformations or anomalous appearance: did not show significant toxicological effects
[1]; 0.06 and 0.2 mg/L, 9 days
  percentage of healthy larvae at the end of the experiment: more healthy larvae reaching the end of the experiment
[1]; first days post-treatment (up to day 2)
  LD50: above the maximum dose evaluated
[1]; high dose (2 mg/L, FIG. 24)
  survival rate of embryos-larvae: caused the mortality of all the embryos of the assay
[1]; increasing doses up to 2 mg/L, 72 hours post-treatment
  reduction of the cardiac rhythm vs controls: statistically significant only at the dose of 2 mg/L
[1]; lower dose (FIG. 25: NST0037 0.2 mg/L)
  survival rate of embryos-larvae vs controls: did not cause a statistically significant reduction of the survival rate
[2]
  % BBB Passage: 22.5 ± 5.5%
[3]
  FC and EC levels: significant reduction of both FC and EC
  HDL-c levels: increase the HDL-c levels
  LDL-c levels vs simvastatin: reduced to a greater extent
[3]; three times a week, female apoB100 mice
  cholesterol fractions: reduced the different cholesterol fractions
[4]
  protection against death caused by OA: 57%
[5]; 4 μM NST0037
  protection against death caused by camptothecin: 18%
[5]; 10 μM NST0037
  protection against death caused by camptothecin: 28%
[5]; 40 μM NST0037
  protection against death caused by camptothecin: 27%
[5]; 100 μM NST0037
  protection against death caused by camptothecin: 27%

Source: patent US20140309295A1, “ANTIEPILEPTIC, HYPOCHOLESTEROLEMIC AND NEUROPROTECTIVE COMPOUND” (NEURON BIOPHARMA, S.A., priority 2009, published 2014)
